The record followed here is ChEMBL document CHEMBL3244037, “6-Aryl-4H-s-triazolo[4,3-a][1,4]benzodiazepines. Influence of 1-substitution on pharmacological activity” (J Med Chem, 1979).

In assay [1] the test system is Mus musculus. Kind of assay: […] activity in ip dosed albino CF1 mouse assessed as potentiation of gamma-butyrolactone-induced sleep. The class given is functional.
Assay [2] concerns Mus musculus. Kind of assay: Potentiation of yohimbine toxicity in ip dosed aggregated albino CF1 mouse. In kind it is organism-based.
In assay [3] the test system is Mus musculus. Kind of assay: Hypothermic activity in ip dosed albino CF1 mouse assessed as effect on body temperature measured after 45 mins. The class given is functional. Conditions: 0.75 h.
Assay [4] deals with Mus musculus. Kind of assay: Inhibition of apomorphine-induced cage climbing in ip dosed albino CF1 mouse compound administered prior to challenge measured for 5 mins after 5 mins of challenge. The class given is functional.
Assay [5] relates to Mus musculus. Kind of assay: Potentiation of apomorphine-induced gnawing in ip dosed albino CF1 mouse. The class given is organism-based.
The test system of assay [6] is Mus musculus. Kind of assay: Anticonvulsant activity in ip dosed albino CF1 mouse assessed as protection against pentylenetetrazole-induced clonic convulsions. The class given is functional.
Assay [7] concerns Mus musculus. Kind of assay: Inhibition of oxotremorine-induced hypothermia in ip dosed albino CF1 mouse. In kind it is functional.
For assay [8], the system named is Mus musculus. Kind of assay: Anticonvulsant activity in ip dosed albino CF1 mouse assessed as inhibition of bicucullin-induced tonic extensor convulsions. In kind it is functional.
For assay [9], the system named is Mus musculus. Kind of assay: Reduction of hypoxic stress in ip dosed albino CF1 mouse assessed as prolongation of hypoxic survival time. In kind it is functional.
The subject of assay [10] is Mus musculus. Kind of assay: Inhibition of amphetamine aggregation toxicity in ip dosed albino CF1 mouse compound administered 1 hr prior to challenge measured after 2 hrs. The class given is functional.

Bounds are passed on as bounds.

In general, ED50 refers to the dose that gives a 50% effect, or the effect in half of the subjects. `Clc1ccc2c(c1)C(c1ccccc1)=NCc1nnc(Cl)n1-2`: the ED50 with Mus musculus [1] was 3 mg/kg; in the assay on Mus musculus [2], greater than 50 mg/kg; in the assay on Mus musculus [3], greater than 50 mg/kg; with Mus musculus [4], greater than 50 mg/kg; in the assay on Mus musculus [5], greater than 50 mg/kg; in the assay with Mus musculus [6], 3.1 mg/kg. In addition, the 50% effective dose (ED50) in the assay with Mus musculus [7] was greater than 50 mg/kg; in the assay with Mus musculus [8], 4 mg/kg; with Mus musculus [9], greater than 50 mg/kg; in the assay on Mus musculus [10] it was greater than 50 mg/kg.
Regarding `CN1CCN(c2nnc3n2-c2ccccc2C(c2ccccc2Cl)=NC3)CC1`, the ED50 in the assay with Mus musculus [1] was greater than 25 mg/kg; in the assay with Mus musculus [2] it was greater than 25 mg/kg; with Mus musculus [3], 0.2 mg/kg; in the assay with Mus musculus [4], 4.4 mg/kg; in the assay on Mus musculus [5], greater than 25 mg/kg; with Mus musculus [6], 6.2 mg/kg. For the same compound, the 50% effective dose (ED50) is greater than 25 mg/kg in the assay with Mus musculus [7], greater than 25 mg/kg with Mus musculus [8], 1.1 mg/kg in the assay with Mus musculus [9] and greater than 25 mg/kg with Mus musculus [10].
`Clc1ccc2c(c1)C(c1ccccc1)=NCc1nnc(N3CCN(c4ccccc4)CC3)n1-2`: the ED50 with Mus musculus [1], with Mus musculus [2], in the assay on Mus musculus [3], with Mus musculus [4], in the assay on Mus musculus [5] and in the assay with Mus musculus [6] was greater than 50 mg/kg in each case. For the same compound, the median effective dose (ED50) in the assay on Mus musculus [7], in the assay on Mus musculus [8], in the assay with Mus musculus [9] and in the assay on Mus musculus [10] was greater than 50 mg/kg each time.
`CC1=NC(c2ccccc2)c2cc(Cl)ccc2-n2c1nnc2N1CCOCC1` (centres undefined): the ED50 in the assay with Mus musculus [1], in the assay on Mus musculus [2], with Mus musculus [3], with Mus musculus [4], with Mus musculus [5] and with Mus musculus [6] was greater than 50 mg/kg each time. For the same compound, the ED50 with Mus musculus [7], in the assay on Mus musculus [8] and with Mus musculus [10] was greater than 50 mg/kg throughout.
Take `CN(C)CCCN1c2ccccc2Sc2ccc(Cl)cc21` [CHLORPROMAZINE]: the ED50 with Mus musculus [1] was 0.5 mg/kg; in the assay with Mus musculus [3], 1 mg/kg; with Mus musculus [4], 1 mg/kg; with Mus musculus [5] it was 1 mg/kg; in the assay with Mus musculus [6], greater than 50 mg/kg; in the assay with Mus musculus [7], 0.9 mg/kg. The 50% effective dose (ED50) in the assay with Mus musculus [8] is 50 mg/kg; with Mus musculus [9], greater than 50 mg/kg; with Mus musculus [10], 1 mg/kg.
Consider `Cc1nnc2n1-c1ccc(Cl)cc1C(c1ccccc1Cl)=NC2` [TRIAZOLAM], for which the ED50 is greater than 50 mg/kg in the assay on Mus musculus [2]; greater than 50 mg/kg in the assay with Mus musculus [5]; 0.07 mg/kg with Mus musculus [6]; greater than 50 mg/kg in the assay with Mus musculus [7]; 0.07 mg/kg in the assay on Mus musculus [9].
In the case of `CC1=NC(c2ccccc2)c2cc(Cl)ccc2-n2c1nnc2N1CCN(C)CC1` (centres undefined), the ED50 in the assay on Mus musculus [1], with Mus musculus [2], with Mus musculus [3], in the assay on Mus musculus [4], in the assay on Mus musculus [5] and in the assay with Mus musculus [6] was greater than 50 mg/kg throughout. The results for the ED50 with Mus musculus [7], in the assay with Mus musculus [8] and in the assay on Mus musculus [10] were 40 mg/kg, greater than 50 mg/kg and greater than 50 mg/kg, respectively.
As to `N#Cc1nnc2n1-c1ccc(Cl)cc1C(c1ccccc1)=NC2`, the median effective dose (ED50) with Mus musculus [1] is 4 mg/kg; with Mus musculus [2], greater than 50 mg/kg; in the assay on Mus musculus [3], 10 mg/kg; in the assay on Mus musculus [4], greater than 50 mg/kg; with Mus musculus [5], greater than 50 mg/kg; with Mus musculus [7] it was greater than 50 mg/kg. Also, the values for the ED50 with Mus musculus [8], with Mus musculus [9] and in the assay on Mus musculus [10] were 3 mg/kg, greater than 50 mg/kg and greater than 50 mg/kg, respectively.
Take `Cc1nnc2n1-c1ccc(Br)cc1C(c1ccccn1)=NC2`: the ED50 with Mus musculus [1] was 0.035 mg/kg; with Mus musculus [2], greater than 50 mg/kg; with Mus musculus [5], greater than 50 mg/kg; in the assay with Mus musculus [6], 0.12 mg/kg; in the assay on Mus musculus [7], greater than 50 mg/kg; in the assay with Mus musculus [8] it was 0.24 mg/kg.
`CN(C)CCCN1c2ccccc2CCc2ccccc21.Cl` [IMIPRAMINE HYDROCHLORIDE]: the ED50 in the assay on Mus musculus [1] is 18 mg/kg; with Mus musculus [2] it was 4 mg/kg; with Mus musculus [3], greater than 50 mg/kg; with Mus musculus [5] it was 1 mg/kg; in the assay with Mus musculus [7] it was 1 mg/kg; in the assay with Mus musculus [8] it was 21 mg/kg. The ED50 with Mus musculus [10] is greater than 50 mg/kg.
